Data: paper PMC8297771 (PLoS Pathogens, 2021)

What was measured:
[1] = tested on: Ral-resistant (8070_2) clinical isolate; test: In vitro anti-viral assay in human PBMCs (RT activity readout); format: cell-based, HIV-1
Procedure: (§1) For the assay with human PBMCs, PHA stimulated cells from at least two pooled healthy were infected with HIV-1 strains in 96-well plates. Test drug dilutions, which were prepared at a 2X concentration in microtiter tubes and 100 μL of each concentration (nine total concentrations), were placed in appropriate wells using the standard format. 50 μL of a predetermined dilution of virus stock was placed in each test well (final MOI ≅ 0.1). The PBMC cultures were maintained for 7 days following infection at 37 °C, 5% CO2. After this period, cell-free supernatant samples were collected for analysis of reverse transcriptase (RT) activity. All assays were conducted in triplicates. For RT assay, a microtiter plate-based reverse transcriptase (RT) reaction was utilized (Buckheit et al., AIDS Research and Human Retroviruses 7:295–302, 1991). Tritiated thymidine triphosphate (^3H-TTP, 80 Ci/mmol, NEN) is received in 1:1 dH2O: Ethanol at 1 mCi/mL. Poly rA:oligo dT template:primer (GE Healthcare) was prepared as a stock solution by combining 150 μL poly rA (20 mg/mL) with 0.5 mL oligo dT (20 units/mL) and 5.35 mL sterile dH2O followed by aliquoting (1.0 mL) and storage at—20°C. The RT reaction buffer was prepared fresh on a daily basis and consisted of 125 μL 1.0 M EGTA, 125 μL dH2O, 125 μL 20% Triton X100, 50 μL 1.0 M Tris (pH 7.4), 50 μL 1.0 M DTT, and 40 μL 1.0 M MgCl2. The final reaction mixture was prepared by combining 1 part ^3H-TTP, 4 parts dH2O, 2.5 parts poly rA:oligo dT stock and 2.5 parts reaction buffer. Ten microliters of this reaction mixture were placed in a round bottom microtiter plate and 15 μL of virus containing supernatant is added and mixed. The plate was incubated at 37°C for 60 mins. Following incubation, the reaction volume was spotted onto DE81 filter-mats (Wallac), washed 5 times for 5 mins each in a 5% sodium phosphate buffer or 2X SSC (Life Technologies). Next they were washed 2 times for 1 min each in distilled water, 2 times for 1 min each in 70% ethanol, and then dried. Incorporated radioactivity (counts per min, CPM) was quantified using standard liquid scintillation techniques. These PBMC analysis was conducted by fee to service through Southern Research Institute (Frederick, MD, USA). The IC50 were analyzed using GraphPad Prism (Version 9) and presented as means ± S.D. of the triplicates.

[2] = tested on: Ral-resistant (1556_1) clinical isolate; test: as above; format: cell-based, HIV-1
Procedure: as §1

[3] = tested on: Ral-resistant (4736_2) clinical isolate; test: as above; format: cell-based, HIV-1; details: human PBMCs, Ral-resistant (4736_2)
Procedure: as §1

[4] = Plasma stability determination; format: in vitro ADME, human, monkey, dog, rat and mouse; details: all tested species; 5 μM, 60 mins, remaining percentage
Procedure: STP0404 was incubated with human, monkey, dog, rat and mouse plasma. These incubations were carried out at a test concentration of 5 μM with an incubation period of 60 mins. Samples of human, monkey, dog, rat and mouse were taken at 0, 15, 30, 45, 60 mins. And stop the reaction by taking 50 μL aliquots to 400 μL acetonitrile with internal standard. Propantheline was used as positive control for human, monkey and mouse plasma and mevinolin as the positive control for dog and rat plasma. The remaining percentage was tested. This test was conducted by a fee to service through Pharmaron (Beijing, China).

[5] = tested on: HIV-1_89.6 particles produced from 293 T cells; test: TEM analysis of HIV-1 particle morphology; format: cell-based; details: viruses produced from treated 293T cells; 1 μM
Procedure: 293T cells were transfected with plasmids containing proviral clones encoding WT HIV-1 89.6 using polyethylenimine (PEI). After 6 hrs, cells were rinsed with DPBS gently, and then cells were resuspended in a fresh media with or without the inhibitor (1 μM, final). At 96 hrs post-transfection, cell cultures were centrifuged (1,800 xg) and filtered through 0.45 μm filter to remove cells and any cell debris, and viruses were harvested by centrifugation at 100,000 xg for 1.5 hrs in the presence of TNE sucrose buffer (5% sucrose, final). The pellets were fixed in a buffer containing 0.1 M Na cacodylate at pH 7.4 and 2.5% Glutaraldehyde, and submitted to Emory Integrated Core Facilities for sectioning, followed by TEM. Virus pellets were dehydrated in a graduated ethanol series and embedded in Epon resin. Ultrathin sections were stained using uranyl acetate and observed under a transmission electron microscope (JEOL JEM-1400), equipped with Gatan CCD camera at the Emory Integrated Electron Microscopy Core. Total of approximately 1,000 virions each (with or without the inhibitor treatment) were captured in the images obtained for comparisons in virion morphology.

HIV-1 NL4-3 = test: In vitro anti-viral assay in MT4 cells; format: cell-based
[6] = tested on: HIV-1 GFP vector produced from treated 293T cells, transduced into Jurkat cells; test: HIV-1 inhibition in producing cells (late stage); format: cell-based; details: 60 nM in 293T producing cells; GFP by FACS in Jurkat cells
Procedure: To test for STP0404’s inhibitory effects during the late stage of HIV-1 life cycle such as the maturation step, we employed the “producing cells” setup. In T75 tissue culture flasks, 293T cells were pre-treated with and without STP0404 (0 and 60 nM) for 2 hrs prior to transfection with pD3-HIV (13 μg) and pVSV-g (6 μg), using 0.3 mg/ml polyethylenimine. After 24 hrs incubation at 37°C, the supernatant was removed and replaced with fresh media with and without STP0404 (0 and 60 nM). 48 hrs later, D3-HIV vector from each treatment group was concentrated from the collected supernatant via ultracentrifugation (22,000 rpm for 2 hrs). Following p24 quantification, using 96-well plates, similar amount of respective D3-HIV vector was used to transduce Jurkat cells in triplicates for 48 hrs. The cells were harvested and fixed with 3.7% formaldehyde before being analyzed for GFP expression using FACS (Miltenyi Biotec, VYB). Separately, the “infecting cells” setup was used to investigate the inhibitory effects of STP0404 against the early stages of HIV-1 life cycle such as the integration and transcription steps. […] All data were analyzed using GraphPad Prism (Version 9). Unpaired t tests were performed to determine the significance of the readings in respective experimental set up relative to the untreated controls. […]

[7] = Human immunodeficiency virus 1, PBMC

With Cc1nc2c(c(C)c(C)n2Cc2cnn(C)c2)c(-c2ccc(Cl)cc2)c1[C@H](OC(C)(C)C)C(=O)O [STP0404] the “TI (TC50 / IC50)” value [1] was >43,400, the IC50 [1, 7] was 0.23 ± 0.39 nM and the “TI (TC50 / IC50)” value [2] was >125,000. For the same compound, the IC50 [2, 7] was 0.08 ± 0.04 nM, the IC50 ([3]; Human immunodeficiency virus 1, PBMC, read-out: IC50) was 0.03 ± 0.04 nM and the “TI (TC50 / IC50)” value [3] was >330,000. The plasma stability [4] was ~100%, the “localization of viral RNA genomes in virus particles (TEM)” value [5] was “viral RNA genomes outside of the capsid” and the “TI (TC50 / IC50)” value (HIV-1 NL4-3; HIV-1 NL4-3 / MT4 cells) was > 6,020. For the same compound, the IC50 (HIV-1 NL4-3; Human immunodeficiency virus 1, NL43, MT4) was 1.66 ± 0.32 nM and the “transduction efficiency, producing cells” value [6] was “significantly reduced transduction efficiency”.
